Experimental data taken from ChEMBL document CHEMBL1201862, “PubChem BioAssay data set” (2004).
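Step 1: Grow cells in 96-well plates. Step 2: Expose to compound for 48 hours at 5 concentrations. Step 3: Interpolate endpoints linearly; if unreached, use highest concentration. GI50: concentration for 50% inhibition of growth.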 The source made the active and inactive calls. No stated cut-off is given here; in the data, active = GI50 up to about 1.1 µM and inactive = higher.

What was measured:
Test in all cases: DTP human tumour cell line panel, 48 h
ACHN = test system: ACHN
CCRF-CEM = test system: CCRF-CEM
COLO 205 = test system: COLO 205
HCC 2998 = test system: HCC 2998
HCT-116 = test system: HCT-116
M14 = test system: M14
Malme-3M = test system: Malme-3M
OVCAR-3 = test system: OVCAR-3
OVCAR-4 = test system: OVCAR-4
RXF 393 = test system: RXF 393
SF-268 = test system: SF-268
SF-295 = test system: SF-295
SF-539 = test system: SF-539
SK-OV-3 = test system: SK-OV-3
UACC-62 = test system: UACC-62
HOP-92 = test system: HOP-92

Measured: GI50

CC(C)(C)C(=O)OCC(COC(=O)C(C)(C)C)[N+](=O)[O-]
inactive: ACHN > 100 µM | CCRF-CEM 41.9 µM | COLO 205 57.1 µM | HCC 2998 > 100 µM | HCT-116 > 100 µM | M14 > 100 µM | Malme-3M > 100 µM | OVCAR-3 > 100 µM | OVCAR-4 > 100 µM | RXF 393 > 100 µM | SF-268 > 100 µM | SF-295 > 100 µM | SF-539 > 100 µM | SK-OV-3 > 100 µM | UACC-62 47.6 µM

CC(=O)Nc1ccc(-c2nnc(SCC(=O)Nc3ccc([N+](=O)[O-])cc3)o2)cc1
inactive: ACHN 15.4 µM | CCRF-CEM 12.6 µM | COLO 205 14.2 µM | HCT-116 12.5 µM | HOP-92 22.9 µM | M14 13.9 µM | Malme-3M 14 µM | OVCAR-3 14.5 µM | OVCAR-4 13.4 µM | RXF 393 14.7 µM | SF-268 14.1 µM | SF-295 14.1 µM | SF-539 24.3 µM | SK-OV-3 17.8 µM | UACC-62 9.84 µM

C[C@]12CC[C@@H]3c4ccccc4CC[C@H]3[C@@H]1CC[C@@H]2O
inactive: ACHN > 100 µM | CCRF-CEM 62.5 µM | COLO 205 73.8 µM | HCC 2998 61.7 µM | HCT-116 > 100 µM | M14 > 100 µM | Malme-3M 44.2 µM | OVCAR-3 > 100 µM | RXF 393 27.6 µM | SF-268 > 100 µM | SF-295 > 100 µM | SF-539 43.1 µM | SK-OV-3 > 100 µM | UACC-62 42.6 µM

N#CC(/C(=N\NC(=O)c1ccncc1)C(=O)Nc1ccc([N+](=O)[O-])cc1[N+](=O)[O-])c1nc(-c2ccc(Br)cc2)cs1 (stereo unspecified)
inactive: ACHN > 100 µM | CCRF-CEM > 100 µM | COLO 205 > 100 µM | HCC 2998 > 100 µM | HCT-116 > 100 µM | M14 > 100 µM | Malme-3M > 100 µM | OVCAR-3 > 100 µM | OVCAR-4 > 100 µM | SF-268 > 100 µM | SF-295 > 100 µM | SF-539 > 100 µM | SK-OV-3 > 100 µM | UACC-62 > 100 µM

COc1ccc(OC)c(NC(=O)C(=O)CC(=O)c2sc(-n3nc(-c4ccccc4)cc3-c3ccccc3)nc2C)c1
inactive: CCRF-CEM > 100 µM | COLO 205 > 100 µM | HCC 2998 > 100 µM | HCT-116 > 100 µM | M14 > 100 µM | Malme-3M > 100 µM | OVCAR-3 > 100 µM | OVCAR-4 > 100 µM | RXF 393 > 100 µM | SF-295 > 100 µM | SF-539 > 100 µM | SK-OV-3 > 100 µM | UACC-62 > 100 µM
